Measured values as given in patent US20110130355A1, “USE OF SOPHORICOSIDE IN THE MANUFACTURE OF MEDICAMENTS” (priority 2008, published 2011).
Marks after values point to notes of the source that are not given here.

Tests used:
[1] = Body weights of rats before and after the treatments; type: in vivo, SD rats; settings: OVX rats, after treatment (11 weeks)
Method: OVX group and the intervention groups: The rats were anesthetized by intraperitoneal injection of 1% pentobarbital sodium at 5 ml/kg. After the onset of anesthesia, the rats were positioned face-down and dehaired at the third lumbar vertebra below the costal arch. The skin was sanitized by benzalkonium bromide and incised by about 1 cm. The subcutaneous tissue and the fascia were incised, and the muscle was bluntly separated. The peritoneum was carefully cut open. White fat was lifted carefully by using tissue forceps inserted to the abdominal cavity through the incision. The fat was gently turned over to expose the quincuncial ovary, which was then ligated by sterile 1 silk thread. The ovary was separated by cutting the oviduct by ophthalmic scissors. After hemostasis by compression, the fat was returned into the abdominal cavity. Subsequently, an incision was made on the opposite side and the same procedures were carried out to excise the ovary on the opposite side. The peritoneum, the fascia, the subcutaneous tissue, and the skin were sutured one by one. The incisions were sanitized. The rats were raised in the clean SPF animal chamber in the Animal Experimental Center of the Shanghai Institutes for Biological Sciences, CAS, with temperature maintained at 24° C., humidity maintained at 40˜60%, and a diurnal rhythm of 12 h/12 h. The rats were supplied with normal food and purified water ad libitum. The vehicle was 1% sodium carboxymethylcellulose (CMC-Na). The sham group and OVX group were administered the vehicle by gavage. Intervention groups were administered the following formulations of active agents dissolved in the vehicle: The rats were sacrificed by cervical dislocation after 11 weeks. Uteri were removed, weighted, and fixed in 4% paraformaldehyde (PFA). The whole right knee joints were removed and fixed in 4% PFA. The rats were weighted, and then sacrificed. The uteri were removed from the rats and determined for wet weights.

[2] = system: articular cartilage of the knee joint; test: Articular surface lesions of the knee joint (toluidine blue staining, image analysis); type: in vivo, SD rats; settings: OVX rats, 11 weeks; for lesion percentage for the articular surface, total: whole knee joint
Method: 1. The Pathological Sections of the Knee Joints of Rats
1) The knee joints of rats were fixed in 4% PFA for 48 hours;
2) The samples were decalcified in 15% ethylenediamine tetraacetic acid (EDTA) for 15 days;
The coronal sections were sectioned by a paraffin microtome (Leica, Model: RM2235) at thickness of 5 μm with the medial collateral ligament being used as a marker. The sections were transferred into warm water at 30° C., and plated on slides pre-treated with polylysine. The slides were transferred to an incubator at 65° C. for 3 hours and stored at ambient condition until use.
2) Staining: The sections were stained in 1% Ammonia Toluene blue for 5 minutes and rinsed with water for 10 minutes;
The lesion lengths in the four weight-bearing articular cartilage surface lesion regions of medial and lateral femoral condyles and medial and lateral tibial plateaus were measured with Axioplan 2 microscopy imaging analysis system (Axioplan 2 multifunctional automatic fluorescent microscope, KS400 imaging analysis system Ver. 3.0, AxioCam digital camera at a resolution of 3900×3090) by two independent persons skilled in the imaging art (FIGS. 3A and 3B). The results were averaged. The lesion percentage for each of the four articular surfaces was calculated. Finally the total lesion percentage for the knee joint was calculated as:
The lesion percentage for each part of the articular surface=lesion length/total length of the weight-bearing articular surface×100%.
The lesion percentage for articular surface of the knee joint=total lesion length/total length of the articular surface×100%.

articular chondrocytes = test: Apoptotic profiles of articular chondrocytes (TUNEL staining); type: in vivo, SD rats; settings: OVX rats, 11 weeks; for apoptotic cells in articular cartilage, in words: FIG. 10; for Apoptotic index of the articular chondrocytes, total: whole knee joint
Source text: When a cell is undergoing apoptosis, the chromosomal DNAs are fragmented in a gradual and staged manner. The chromosomal DNAs are firstly degraded into large fragments of 50-300 kb by endogenous nucleases. Next, about 30% of the chromosomal DNAs were randomly cleaved at internucleosomal regions by the Ca^2+ and Mg^2+ dependent endonucleases to form multimers of 180˜200 bp nucleosomal DNAs. The free 3′-ends resulted from DNA double-strand break or DNA single chain gapping can be labeled by adding a derivative formed by the deoxyribonucleotide and fluorescein, peroxidase, alkaline phosphatase by the terminal deoxynucleotidyl transferase. The apoptotic cells can be detected accordingly. Such methods are generally referred to as terminal deoxynucleotidyl transferase-mediated nick end labeling.
1) Section Dewaxing: The sections were placed in an incubator at 65° C. for 3 hours, and then immersed in xylene for 5 minutes×2, in 100% ethanol for 10 min×2, in 95% ethanol for 5 min×2, in 85% ethanol for 5 minutes, in 75% ethanol for 5 minutes, and in PBS for 5 minutes×2;
2) Pre-treatment: Each of the sections was incubated with 60 μl fresh protease K (20 μg/ml) in a humidified chamber at 37° C. for 20 minutes; and then rinsed with PBS for 2 minutes×2;
3) Elimination of endogenous peroxidases: The sections were treated with 3% H2O2-methanol for 5 minutes and washed by PBS for 5 minutes×2;
4) Equilibration: Each of the sections was rinsed with 75 μl equilibration solution for 10 seconds and decanted, and the residual water was sucked off;
5) Addition of TdT enzyme: […] working solution was added to each of the sections immediately with the […] control untreated, and the sections were placed in a humidified chamber at 37° C. for 1 hour;
6) Quenching: The sections were gently shook in the quenching solution for 15 minutes, and washed by PBS for 3 minutes×3, and decanted gently;
7) Visualization: Each of the sections was incubated with 65 μl antidigoxin-perioxidase in a humidified chamber at room temperature for 30 minutes, and washed by PBS for 2 minutes×4. After incubation with sufficient amount of the perioxidase substrate (75 μl) for 3˜6 minutes, each of the sections was visualized by microscopy;
8) Counterstaining: The sections were rinsed with flowing water for 3 minutes, and subsequently stained by hematoxylin for 10 seconds, then rinsed with flowing water for 10 minutes, immersed in 95% ethanol for 10 minutes×2, immersed in 100% ethanol for 10 minutes×2; placed in xylene for 10 minutes×2; and finally mounted in neutral resin.
The average of the indices for the four regions was regarded as the total apoptotic index for the indicated knee joint, and the average of the indices obtained from two persons was regarded as the final experimental result.
The apoptotic index=number of positive cells in the field/total number of chondrocytes in the field×100%.

[3] = system: croton oil-induced ear edema; settings: in vivo; cited from earlier work

O=c1c(-c2ccc(O[C@@H]3O[C@H](CO)[C@@H](O)[C@H](O)[C@H]3O)cc2)coc2cc(O)cc(O)c12 [HDA, 3-[4-(β-D-glucopyranosyl)-benzyl]5,7-dihydro-4H-1-benzopyran-4-one (4′,5,7-trihydroxylisoflavone-4′-D-glucoside)]
Final body weight ([1]; sophoricoside 10 mg/kg/day): 370.9 ± 5.7 g
Final body weight ([1]; sophoricoside 20 mg/kg/day): 376.2 ± 6.5 g
Final body weight ([1]; sophoricoside 40 mg/kg/day): 372.5 ± 6.8 g
Final body weight ([1]; sophoricoside 80 mg/kg/day): 362.8 ± 3.4 g
articular cartilage degeneration resulted from ovariectomy, in words ([2]; sophoricoside 10 mg/kg/day): ameliorated by the interventions other than HDA10 and HDA20
articular cartilage degeneration resulted from ovariectomy, in words ([2]; sophoricoside 20 mg/kg/day): ameliorated by the interventions other than HDA10 and HDA20
articular cartilage degeneration resulted from ovariectomy, in words ([2]; sophoricoside 40 mg/kg/day): effective but not able to completely reverse the degeneration
articular cartilage degeneration resulted from ovariectomy, in words ([2]; sophoricoside 80 mg/kg/day): significantly more effective than OVX
lesion percentage for the articular surface, total ([2]; sophoricoside 10 mg/kg/day): 7.785 ± 0.547^□□ %
lesion percentage for the articular surface, total ([2]; sophoricoside 20 mg/kg/day): 6.622 ± 0.366^□□ %
lesion percentage for the articular surface, total ([2]; sophoricoside 40 mg/kg/day): 5.617 ± 0.264*^□□ %
lesion percentage for the articular surface, total ([2]; sophoricoside 80 mg/kg/day): 4.808 ± 0.603 %
apoptotic cells in articular cartilage, in words (articular chondrocytes; sophoricoside 20 mg/kg/day): The interventions other than HAD20 decreased the apoptotic chondrocytes
apoptotic cells in articular cartilage, in words (articular chondrocytes; sophoricoside 40 mg/kg/day): weaker
apoptotic cells in articular cartilage, in words (articular chondrocytes; sophoricoside 80 mg/kg/day): less than OVX group and similar to normal articular cartilage
Apoptotic index of the articular chondrocytes, lateral femur (articular chondrocytes; sophoricoside 20 mg/kg/day): 10.269 ± 1.313^□ %
Apoptotic index of the articular chondrocytes, lateral tibia (articular chondrocytes; sophoricoside 20 mg/kg/day): 12.571 ± 1.226^□□ %
Apoptotic index of the articular chondrocytes, medial femur (articular chondrocytes; sophoricoside 20 mg/kg/day): 14.779 ± 1.819^□□ %
Apoptotic index of the articular chondrocytes, medial tibia (articular chondrocytes; sophoricoside 20 mg/kg/day): 13.125 ± 1.891^□□ %
Apoptotic index of the articular chondrocytes, lateral femur (articular chondrocytes; sophoricoside 40 mg/kg/day): 7.991 ± 0.943%
Apoptotic index of the articular chondrocytes, lateral tibia (articular chondrocytes; sophoricoside 40 mg/kg/day): 7.665 ± 0.976**^□ %
Apoptotic index of the articular chondrocytes, medial femur (articular chondrocytes; sophoricoside 40 mg/kg/day): 10.779 ± 1.159%
Apoptotic index of the articular chondrocytes, medial tibia (articular chondrocytes; sophoricoside 40 mg/kg/day): 9.581 ± 0.760*^□ %
Apoptotic index of the articular chondrocytes, lateral femur (articular chondrocytes; sophoricoside 80 mg/kg/day): 5.253 ± 0.923 %
Apoptotic index of the articular chondrocytes, lateral tibia (articular chondrocytes; sophoricoside 80 mg/kg/day): 5.509 ± 0.847 %
Apoptotic index of the articular chondrocytes, medial femur (articular chondrocytes; sophoricoside 80 mg/kg/day): 7.410 ± 0.872 %
Apoptotic index of the articular chondrocytes, medial tibia (articular chondrocytes; sophoricoside 80 mg/kg/day): 6.558 ± 1.121 %
Apoptotic index of the articular chondrocytes, total (articular chondrocytes; sophoricoside 20 mg/kg/day): 12.711 ± 1.178^□□ %
Apoptotic index of the articular chondrocytes, total (articular chondrocytes; sophoricoside 40 mg/kg/day): 9.004 ± 0.588**^□ %
Apoptotic index of the articular chondrocytes, total (articular chondrocytes; sophoricoside 80 mg/kg/day): 6.183 ± 0.738 %
croton oil-induced ear edema [3]: inhibit
